Reference: patent US20230265151A1, “GIP/GLP1 CO-AGONIST COMPOUNDS” (priority 2020, published 2023)
Like-named read-outs stand apart in the source and are kept apart here. *1 amine or outer side, *2 acyl side, *3 side chain or, on linkers, in order; H or OH if unused. Where a SMILES comes first, the peptide text is derived from it. Side-chain parts run from the residue outwards. [ ]: non-standard residue; d: D form. The star is where a group is joined. αMePhe(2-F) = C[C@](N)(Cc1ccccc1F)C(=O)O; γGlu = O=C(O)[C@H](CCC(=O)[*:2])N[*:1]; C14 diacid = O=C(O)CCCCCCCCCCCCC(=O)*; αMeY = C[C@](N)(Cc1ccc(O)cc1)C(=O)O; αMeL = CC(C)C[C@](C)(N)C(=O)O; Orn = NCCC[C@H](N)C(=O)O; AEEA = NCCOCCOCC(=O)O; Aib = CC(C)(N)C(=O)O

Columns and labels:
Format in all cases: cell-based
[1] = target: T1, hGIPR (Homo sapiens, UniProt P48546); test: Functional cAMP formation (HTRF) in HEK-293 clonal cells expressing hGIPR, 0.1% bovine casein, without or with 1.0% human serum albumin; details: for EC50: geometric mean, read-out: hGIPR EC50, nM (SEM, n); for Emax: read-out: hGIPR Emax, % ± SEM
T1 construct: expressed in transfected cells
T1 sequence (P48546 22-466): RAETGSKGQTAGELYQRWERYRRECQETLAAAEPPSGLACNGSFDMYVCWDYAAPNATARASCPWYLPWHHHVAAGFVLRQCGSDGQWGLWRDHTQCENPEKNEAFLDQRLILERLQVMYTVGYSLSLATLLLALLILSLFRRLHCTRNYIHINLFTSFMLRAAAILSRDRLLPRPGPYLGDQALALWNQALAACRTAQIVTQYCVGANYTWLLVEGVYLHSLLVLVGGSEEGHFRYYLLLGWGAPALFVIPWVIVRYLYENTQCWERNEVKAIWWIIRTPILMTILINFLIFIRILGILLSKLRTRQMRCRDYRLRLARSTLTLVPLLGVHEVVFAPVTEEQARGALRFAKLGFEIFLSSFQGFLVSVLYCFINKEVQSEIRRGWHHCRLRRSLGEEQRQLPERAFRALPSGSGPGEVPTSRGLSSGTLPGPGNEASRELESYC
Outline: (§1)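 Cells were stimulated with peptide for 30 min at 37° C, then intracellular cAMP was measured by competitive HTRF (665/620 nm ratio) and converted to nM using a cAMP standard curve. Relative EC50 and Emax came from four-parameter logistic fits of percent maximal response against peptide concentration.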

[2] = target: T2, hGCGR (Homo sapiens, UniProt P47871); test: Functional cAMP formation (HTRF) in HEK-293 clonal cells expressing hGCGR, 0.1% bovine casein, without or with 1.0% human serum albumin; details: read-out: hGCGR EC50, nM (SEM, n)
T2 construct: expressed in transfected cells
T2 sequence (P47871 26-477): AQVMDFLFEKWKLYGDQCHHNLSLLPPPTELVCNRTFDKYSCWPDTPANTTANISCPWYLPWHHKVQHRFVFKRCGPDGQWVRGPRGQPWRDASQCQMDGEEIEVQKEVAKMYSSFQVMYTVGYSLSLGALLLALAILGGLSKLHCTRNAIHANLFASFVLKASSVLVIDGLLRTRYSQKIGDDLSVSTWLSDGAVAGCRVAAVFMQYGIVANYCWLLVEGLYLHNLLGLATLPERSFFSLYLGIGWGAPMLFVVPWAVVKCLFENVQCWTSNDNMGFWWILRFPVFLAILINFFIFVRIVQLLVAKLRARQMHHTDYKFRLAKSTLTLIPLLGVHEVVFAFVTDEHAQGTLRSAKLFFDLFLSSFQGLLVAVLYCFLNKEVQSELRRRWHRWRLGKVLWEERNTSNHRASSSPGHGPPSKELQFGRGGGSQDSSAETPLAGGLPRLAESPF
Outline: as §1

[3] = target: hGLP-1R (Homo sapiens, UniProt P43220); test: Functional cAMP formation (HTRF) in HEK-293 clonal cells expressing hGLP-1R, 0.1% bovine casein, without or with 1.0% human serum albumin; design: expressed in transfected cells; details: for EC50: geometric mean, read-out: hGLP-1R EC50, nM (SEM, n); for Emax: read-out: hGLP-1R Emax, % ± SEM
Chain of hGLP-1R (P43220 24-463): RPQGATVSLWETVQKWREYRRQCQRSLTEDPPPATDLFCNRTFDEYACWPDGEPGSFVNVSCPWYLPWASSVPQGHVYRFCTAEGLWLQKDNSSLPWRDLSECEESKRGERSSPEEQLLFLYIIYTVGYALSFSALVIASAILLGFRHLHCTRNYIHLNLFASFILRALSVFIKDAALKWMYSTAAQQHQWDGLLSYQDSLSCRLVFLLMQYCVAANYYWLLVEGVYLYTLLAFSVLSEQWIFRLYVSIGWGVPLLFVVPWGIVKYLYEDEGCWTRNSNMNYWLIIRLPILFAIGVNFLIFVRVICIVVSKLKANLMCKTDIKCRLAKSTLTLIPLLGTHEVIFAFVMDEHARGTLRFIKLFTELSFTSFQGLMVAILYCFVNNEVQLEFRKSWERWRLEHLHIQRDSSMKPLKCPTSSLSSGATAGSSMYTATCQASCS
Outline: as §1

[4] = 0.1% bovine casein and 1.0% human serum albumin, 37° C.
[5] = HEK293, 0.1% bovine casein and 1.0% human serum albumin, 37° C., percent of maximal response to GIP(1-42)NH2
[6] = HEK293, percent of maximal response to GIP(1-42)NH2, 37° C., 0.1% bovine casein, arithmetic mean
[7] = cAMP, incubated at 37° C., 0.1% bovine casein (no human serum albumin)
[8] = 0.1% bovine casein and 1.0% human serum albumin, 37° C., geometric mean
[9] = cAMP, incubated at 37° C., 0.1% bovine casein (no human serum albumin), geometric mean
[10] = HEK293, percent of maximal response to GLP-1(7-36)NH2, 37° C., 0.1% bovine casein, arithmetic mean
[11] = HEK293, cAMP, 37° C., 0.1% bovine casein, percent of maximal response to GIP(1-42)NH2, arithmetic mean
[12] = cAMP, 37° C., 0.1% bovine casein (no human serum albumin)
[13] = cAMP, 37° C., 0.1% bovine casein (no human serum albumin), geometric mean

SMILES	EC50 [1, 4] [nM]	Emax [1, 5] [%]	Emax [1, 6] [%]	EC50 [1, 7] [nM]	EC50 [2, 8] [nM]	EC50 [2, 9] [nM]	EC50 [3, 4] [nM]	Emax ([3]; HEK293, 0.1% bovine casein and 1.0% human serum albumin, 37° C., percent of maximal response to GLP-1(7-36)NH2) [%]	Emax [3, 10] [%]	EC50 [3, 7] [nM]	Emax ([1]; HEK293, cAMP, 37° C., 0.1% bovine casein and 1.0% human serum albumin, percent of maximal response to GIP(1-42)NH2) [%]	Emax [1, 11] [%]	EC50 [1, 12] [nM]	EC50 [2, 13] [nM]	EC50 ([2]; cAMP, 37° C., 0.1% bovine casein and 1.0% human serum albumin, geometric mean (SEM, n)) [nM]	Emax ([3]; HEK293, cAMP, 37° C., 0.1% bovine casein and 1.0% human serum albumin, percent of maximal response to GLP-1(7-36)NH2) [%]	Emax ([3]; HEK293, cAMP, 37° C., 0.1% bovine casein, percent of maximal response to GLP-1(7-36)NH2, arithmetic mean) [%]	EC50 [3, 12] [nM]
CC[C@H](C)[C@H](NC(=O)[C@H](CC(C)C)NC(=O)[C@](C)(Cc1ccc(O)cc1)NC(=O)[C@@H](CCC(=O)O)NC(=O)[C@@H](NC(=O)[C@H](Cc1ccccc1)NC(=O)[C@H](CCCCNC(=O)COCCOCCNC(=O)CC[C@H](NC(=O)CCCc1ccc(C(C)(C)C)cc1)C(=O)O)NC(=O)C(C)(C)NC(=O)[C@H](CCC(N)=O)NC(=O)[C@H](C)NC(=O)[C@H](CCCCNC(=O)COCCOCCNC(=O)CC[C@H](NC(=O)CCCc1ccc(C(C)(C)C)cc1)C(=O)O)NC(=O)[C@H](CCCN)NC(=O)[C@H](CC(=O)O)NC(=O)[C@H](CC(C)C)NC(=O)[C@](C)(CC(C)C)NC(=O)[C@@H](NC(=O)[C@H](CO)NC(=O)[C@H](Cc1ccncc1)NC(=O)[C@H](CC(=O)O)NC(=O)[C@H](CO)NC(=O)[C@@H](NC(=O)[C@](C)(Cc1ccccc1F)NC(=O)[C@@H](NC(=O)CNC(=O)[C@H](CCC(=O)O)NC(=O)C(C)(C)NC(=O)[C@@H](N)Cc1ccc(O)cc1)[C@@H](C)O)[C@@H](C)O)[C@@H](C)CC)[C@@H](C)CC)C(=O)N[C@@H](CCC(=O)O)C(=O)NCC(=O)NCC(=O)N1CCC[C@H]1C(=O)N[C@@H](CO)C(=O)N[C@@H](CO)C(=O)NCC(=O)N[C@@H](C)C(=O)N1CCC[C@H]1C(=O)N1CCC[C@H]1C(=O)N1CCC[C@H]1C(=O)N[C@@H](CO)C(N)=O [Example 207]	0.591	97.9	96.2	0.019	> 9950	> 9950	2.98	112	95.1	0.209								
CC[C@H](C)[C@H](NC(=O)[C@H](CC(C)C)NC(=O)[C@](C)(Cc1ccc(O)cc1)NC(=O)[C@@H](CCC(=O)O)NC(=O)[C@@H](NC(=O)[C@H](Cc1ccccc1)NC(=O)[C@H](CCCCNC(=O)COCCOCCNC(=O)COCCOCCNC(=O)CC[C@H](NC(=O)CCCCCCCCCCCCC(=O)O)C(=O)O)NC(=O)C(C)(C)NC(=O)[C@H](CCC(N)=O)NC(=O)[C@H](C)NC(=O)[C@H](CCCCNC(=O)COCCOCCNC(=O)COCCOCCNC(=O)CC[C@H](NC(=O)CCCCCCCCCCCCC(=O)O)C(=O)O)NC(=O)[C@H](CCCN)NC(=O)[C@H](CC(=O)O)NC(=O)[C@H](CC(C)C)NC(=O)[C@](C)(CC(C)C)NC(=O)[C@@H](NC(=O)C(C)(C)NC(=O)[C@H](Cc1ccc(O)cc1)NC(=O)[C@H](CC(=O)O)NC(=O)[C@H](CO)NC(=O)[C@@H](NC(=O)[C@](C)(Cc1ccccc1F)NC(=O)[C@@H](NC(=O)CNC(=O)[C@H](CCC(=O)O)NC(=O)C(C)(C)NC(=O)[C@@H](N)Cc1ccc(O)cc1)[C@@H](C)O)[C@@H](C)O)[C@@H](C)CC)[C@@H](C)CC)C(=O)N[C@@H](CCC(=O)O)C(=O)NCC(=O)NCC(=O)N1CCC[C@H]1C(=O)N[C@@H](CO)C(=O)N[C@@H](CO)C(=O)NCC(=O)N[C@@H](C)C(=O)N1CCC[C@H]1C(=O)N1CCC[C@H]1C(=O)N1CCC[C@H]1C(=O)N[C@@H](CO)C(N)=O [Example 230]		85.8	105	0.0199	> 9950	> 9950			90.3	0.726								
CC[C@H](C)[C@H](NC(=O)[C@H](CC(C)C)NC(=O)[C@](C)(Cc1ccc(O)cc1)NC(=O)[C@@H](CCC(=O)O)NC(=O)[C@@H](NC(=O)[C@H](Cc1ccccc1)NC(=O)[C@H](CCCN)NC(=O)C(C)(C)NC(=O)[C@H](CCC(N)=O)NC(=O)[C@H](C)NC(=O)[C@H](CCCCNC(=O)COCCOCCNC(=O)COCCOCCNC(=O)CC[C@H](NC(=O)CCCCCCCCCCCCC(=O)O)C(=O)O)NC(=O)[C@H](CCCN)NC(=O)[C@H](CC(=O)O)NC(=O)[C@H](CC(C)C)NC(=O)[C@](C)(CC(C)C)NC(=O)[C@@H](NC(=O)C(C)(C)NC(=O)[C@H](Cc1ccc(O)cc1)NC(=O)[C@H](CC(=O)O)NC(=O)[C@H](CO)NC(=O)[C@@H](NC(=O)[C@](C)(Cc1ccccc1F)NC(=O)[C@@H](NC(=O)CNC(=O)[C@H](CCC(=O)O)NC(=O)C(C)(C)NC(=O)[C@@H](N)Cc1ccc(O)cc1)[C@@H](C)O)[C@@H](C)O)[C@@H](C)CC)[C@@H](C)CC)C(=O)N[C@@H](CCCCNC(=O)COCCOCCNC(=O)COCCOCCNC(=O)CC[C@H](NC(=O)CCCCCCCCCCCCC(=O)O)C(=O)O)C(=O)NCC(=O)NCC(=O)N1CCC[C@H]1C(=O)N[C@@H](CO)C(=O)N[C@@H](CO)C(=O)NCC(=O)N[C@@H](C)C(=O)N1CCC[C@H]1C(=O)N1CCC[C@H]1C(=O)N1CCC[C@H]1C(=O)N[C@@H](CO)C(N)=O [Example 349] (H-Y[Aib]EGT[αMePhe(2-F)]TSDY[Aib]I[αMeL]LD[Orn]K([AEEA-AEEA-γGlu-C14 diacid])AQ[Aib][Orn]FI[dE][αMeY]LIK([AEEA-AEEA-γGlu-C14 diacid])GGPSSGAPPPS-NH2; N-terminus assumed)											79.3	95.9	0.015	> 9950	> 9950	94.3	99	0.334
CCCCCCCCCCCC(=O)N[C@@H](CCC(=O)NCCOCCOCC(=O)NCCOCCOCC(=O)NCCCC[C@H](NC(=O)[C@H](CCCN)NC(=O)[C@H](CC(=O)O)NC(=O)[C@H](CC(C)C)NC(=O)[C@](C)(CC(C)C)NC(=O)[C@@H](NC(=O)C(C)(C)NC(=O)[C@H](Cc1ccc(O)cc1)NC(=O)[C@H](CC(=O)O)NC(=O)[C@H](CO)NC(=O)[C@@H](NC(=O)[C@](C)(Cc1ccccc1F)NC(=O)[C@@H](NC(=O)CNC(=O)[C@H](CCC(=O)O)NC(=O)C(C)(C)NC(=O)[C@@H](N)Cc1ccc(O)cc1)[C@@H](C)O)[C@@H](C)O)[C@@H](C)CC)C(=O)N[C@@H](C)C(=O)N[C@@H](CCC(N)=O)C(=O)NC(C)(C)C(=O)N[C@@H](CCC(=O)O)C(=O)N[C@@H](Cc1ccccc1)C(=O)N[C@H](C(=O)N[C@H](CCC(=O)O)C(=O)N[C@@](C)(Cc1ccc(O)cc1)C(=O)N[C@@H](CC(C)C)C(=O)N[C@H](C(=O)N[C@@H](CCCCNC(=O)COCCOCCNC(=O)COCCOCCNC(=O)CC[C@H](NC(=O)CCCCCCCCCCC)C(=O)O)C(=O)NCC(=O)NCC(=O)N1CCC[C@H]1C(=O)N[C@@H](CO)C(=O)N[C@@H](CO)C(=O)NCC(=O)N[C@@H](C)C(=O)N1CCC[C@H]1C(=O)N1CCC[C@H]1C(=O)N1CCC[C@H]1C(=O)N[C@@H](CO)C(N)=O)[C@@H](C)CC)[C@@H](C)CC)C(=O)O [Example 301]		85.5			> 9950							97.4	0.0128	> 9950				0.175
